Read-outs that look alike come from different tables or passages of the source.
Assays:
Format in all cases: cell-based, Escherichia coli
EKO-35 araC::mdtEF Pore = test: MIC susceptibility profiling, porinated efflux platform; conditions: for Fold changes of MICs: EKO-35 araC::mdtEF Pore compared to EKO-35-Pore
Outline: (§1)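 MIC values come from background-corrected OD600 readings (pre-incubation OD subtracted) after 18 h at 37 °C and 900 rpm in MHB II. Compounds were tested in duplicate as 2-fold dilutions. The inoculum came from 18 h LB cultures adjusted to OD600 ~1.0 and diluted 1/2000, and the pore-bearing strains were vancomycin-checked beforehand.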

EKO-35 araC::mdtBC Pore = test: as above; conditions: for Fold changes of MICs: EKO-35 araC::mdtBC Pore compared to EKO-35-Pore
Outline: as §1

EKO-35 araC::acrB Pore = test: as above; conditions: for Fold changes of MICs: EKO-35 araC::acr-B Pore compared to EKO-35-Pore; for Minimum inhibitory concentration, EKO-35 araC::acrB Pore: Table 14A, porinated, technical duplicate
Outline: as §1

EKO-35 araC::acrEF Pore = test: as above; conditions: for Fold changes of MICs: EKO-35 araC::acrEF Pore compared to EKO-35-Pore
Outline: as §1

EKO-35 araC::acrD Pore = test: as above; conditions: for Fold changes of MICs: EKO-35 araC::acrD Pore compared to EKO-35-Pore
Outline: as §1

EKO-35 araC::emrKY Pore = test: as above; conditions: for Fold changes of MICs: EKO-35 araC::emrKY Pore compared to EKO-35-Pore
Outline: as §1

EKO-35 araC::mexCD Pore = test: as above; conditions: for Fold changes of MICs: EKO-35 araC::mexCD Pore compared to EKO-35-Pore
Outline: as §1

[1] = tested on: EKO-35 araC::acrBD408A Pore; test: as above; conditions: for Fold changes of MICs: EKO-35 araC::acrBD408A Pore compared to EKO-35-Pore
Outline: as §1

EKO-35 araC::emrAB Pore = test: as above; conditions: for Fold changes of MICs: EKO-35 araC::emrAB Pore compared to EKO-35-Pore
Outline: as §1

EKO-35 araC::macAB Pore = test: as above; conditions: for Fold changes of MICs: EKO-35 araC::macAB Pore compared to EKO-35-Pore; for Minimum inhibitory concentration: EKO-35 araC::macAB Pore, technical duplicate
Outline: as §1

wild-type (WT) K-12-Pore = test: microbe, parasite or virus in culture; conditions: technical duplicate; for MIC: Escherichia coli
Outline: as §1

ΔtolC-Pore = test: microbe, parasite or virus in culture; conditions: for Minimum inhibitory concentration (MIC), Pore ΔtolC: Table 10, with pore; for Minimum inhibitory concentration (MIC), Pore ΔtolC / Minimum inhibitory concentration, ΔtolC-Pore: technical duplicate; for Minimum inhibitory concentration, ΔtolC-Pore: Table 14A, porinated
Outline: as §1

EKO-35 araC::macAB = test: MIC susceptibility profiling, efflux platform; conditions: for Fold change of MICs: EKO-35 araC::macAB compared to EKO-35; for Minimum Inhibitory Concentration, EKO-35 araC::macAB: Table 13B, non-porinated, technical duplicate
Outline: (§2)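 MHB II broth microdilution; inoculum from 18 h LB culture, PBS-adjusted to OD600 ~1.0, then 1/2000 dilution. Compounds 2-fold titrated, duplicates, DMSO solvent control. 18 h, 37 °C, 900 rpm; background-corrected OD600 end point.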

EKO-35 araC::emrAB = test: MIC susceptibility profiling, efflux platform; conditions: for Fold change of MICs: EKO-35 araC::emrAB compared to EKO-35; for Minimum Inhibitory Concentration, EKO-35 araC::emrAB: Table 13B, non-porinated, technical duplicate
Outline: as §2

EKO-35 araC::mdtEF = test: MIC susceptibility profiling, efflux platform; conditions: for Fold change of MICs: EKO-35 araC::mdtEF compared to EKO-35; for Minimum Inhibitory Concentration, EKO-35 araC::mdtEF: Table 13A, non-porinated, technical duplicate
Outline: as §2

EKO-35 araC::emrKY = test: MIC susceptibility profiling, efflux platform; conditions: for Fold change of MICs: EKO-35 araC::emrKY compared to EKO-35
Outline: as §2

EKO-35 araC::acrEF = test: MIC susceptibility profiling, efflux platform; conditions: for Fold change of MICs: EKO-35 araC::acrEF compared to EKO-35; for Minimum Inhibitory Concentration, EKO-35 araC::acrEF: Table 13A, non-porinated, technical duplicate
Outline: as §2

EKO-35 araC::acrBD408A = test: MIC susceptibility profiling, efflux platform; conditions: for Fold change of MICs: EKO-35 araC::acrBD408A compared to EKO-35
Outline: as §2

[2] = Table 14A, porinated, technical duplicate
[3] = EKO-35 araC::mdtBC Pore, technical duplicate
[4] = EKO-35 araC::emrKY Pore, technical duplicate
[5] = EKO-35 araC::mexCD Pore, technical duplicate
[6] = EKO-35 araC::acrBD408A Pore, technical duplicate
[7] = EKO-35 araC::emrAB Pore, technical duplicate
[8] = Table 13B, non-porinated, technical duplicate

Row | Compound | Fold changes of MICs (EKO-35 araC::mdtEF Pore) | Minimum inhibitory concentration, EKO-35 araC::mdtEF Pore (EKO-35 araC::mdtEF Pore; [2]) | Fold changes of MICs (EKO-35 araC::mdtBC Pore) | Minimum inhibitory concentration (EKO-35 araC::mdtBC Pore; [3]) | Fold changes of MICs (EKO-35 araC::acrB Pore) | Minimum inhibitory concentration, EKO-35 araC::acrB Pore (EKO-35 araC::acrB Pore) | Fold changes of MICs (EKO-35 araC::acrEF Pore) | Fold changes of MICs (EKO-35 araC::acrD Pore) | Fold changes of MICs (EKO-35 araC::emrKY Pore) | Fold changes of MICs (EKO-35 araC::mexCD Pore) | Fold changes of MICs [1] | Fold changes of MICs (EKO-35 araC::emrAB Pore) | Fold changes of MICs (EKO-35 araC::macAB Pore) | Minimum inhibitory concentration (MIC), Pore ΔtolC (ΔtolC-Pore) | Fold change of MICs (EKO-35 araC::macAB) | Fold change of MICs (EKO-35 araC::emrAB) | Fold change of MICs (EKO-35 araC::mdtEF) | Fold change of MICs (EKO-35 araC::emrKY) | Fold change of MICs (EKO-35 araC::acrEF) | Fold change of MICs (EKO-35 araC::acrBD408A) | also measured
1 | N#CC(=NNc1cccc(C(F)(F)F)c1)C(=O)c1ccsc1 [compound 3] | 1 fold | 320 µg/mL | 1 fold | 320 µg/mL | 1 fold | 320 µg/mL | 1 fold | 1 fold | 1 fold | 1 fold | 1 fold | 1 fold | 1 fold | 1.25 µg/mL | 1 fold | 1 fold | 1 fold | 1 fold | 1 fold | 1 fold | Minimum inhibitory concentration, EKO-35 araC::acrEF Pore (EKO-35 araC::acrEF Pore; [2]): 320 µg/mL; Minimum inhibitory concentration, EKO-35 araC::acrD Pore (EKO-35 araC::acrD Pore; [2]): 320 µg/mL; Minimum inhibitory concentration (EKO-35 araC::emrKY Pore; [4]): 320 µg/mL; Minimum inhibitory concentration (EKO-35 araC::mexCD Pore; [5]): 320 µg/mL; Minimum inhibitory concentration [1, 6]: 320 µg/mL; Minimum inhibitory concentration (EKO-35 araC::emrAB Pore; [7]): 320 µg/mL; Minimum inhibitory concentration (EKO-35 araC::macAB Pore): 320 µg/mL; Minimum inhibitory concentration (MIC), Pore K-12 (wild-type (WT) K-12-Pore; Table 10, with pore): 320 µg/mL; Minimum inhibitory concentration, K-12 (WT)-Pore (wild-type (WT) K-12-Pore; Table 14A, porinated): 320 µg/mL; Minimum inhibitory concentration, ΔtolC-Pore (ΔtolC-Pore): 1.25 µg/mL; Minimum Inhibitory Concentration, EKO-35 araC::macAB (EKO-35 araC::macAB): 320 µg/mL; Minimum Inhibitory Concentration, EKO-35 araC::emrAB (EKO-35 araC::emrAB): 320 µg/mL; Minimum Inhibitory Concentration, EKO-35 araC::mdtEF (EKO-35 araC::mdtEF): 320 µg/mL; Minimum Inhibitory Concentration, EKO-35 araC::emrKY (EKO-35 araC::emrKY; [8]): 320 µg/mL; Minimum Inhibitory Concentration, EKO-35 araC::acrEF (EKO-35 araC::acrEF): 320 µg/mL; Minimum Inhibitory Concentration, EKO-35 araC::acrBD408A (EKO-35 araC::acrBD408A; [8]): 320 µg/mL
2 | Cn1cc(Br)c(-c2cccc(NC(=O)Nc3ccc(OC(F)(F)F)cc3)c2)n1 [compound 14] | 1 fold | 320 µg/mL | 1 fold | 320 µg/mL | 1 fold | 320 µg/mL | 1 fold | 1 fold | 1 fold | 1 fold | 1 fold | 1 fold | 1 fold | 1.25 µg/mL | 1 fold | 1 fold | 1 fold | 1 fold | 1 fold | 1 fold | Minimum inhibitory concentration, EKO-35 araC::acrEF Pore (EKO-35 araC::acrEF Pore; [2]): 320 µg/mL; Minimum inhibitory concentration, EKO-35 araC::acrD Pore (EKO-35 araC::acrD Pore; [2]): 320 µg/mL; Minimum inhibitory concentration (EKO-35 araC::emrKY Pore; [4]): 320 µg/mL; Minimum inhibitory concentration (EKO-35 araC::mexCD Pore; [5]): 320 µg/mL; Minimum inhibitory concentration [1, 6]: 320 µg/mL; Minimum inhibitory concentration (EKO-35 araC::emrAB Pore; [7]): 320 µg/mL; Minimum inhibitory concentration (EKO-35 araC::macAB Pore): 320 µg/mL; Minimum inhibitory concentration (MIC), Pore K-12 (wild-type (WT) K-12-Pore; Table 10, with pore): 320 µg/mL; Minimum inhibitory concentration, K-12 (WT)-Pore (wild-type (WT) K-12-Pore; Table 14A, porinated): 320 µg/mL; Minimum inhibitory concentration, ΔtolC-Pore (ΔtolC-Pore): 1.25 µg/mL; Minimum Inhibitory Concentration, EKO-35 araC::macAB (EKO-35 araC::macAB): 320 µg/mL; Minimum Inhibitory Concentration, EKO-35 araC::emrAB (EKO-35 araC::emrAB): 320 µg/mL; Minimum Inhibitory Concentration, EKO-35 araC::mdtEF (EKO-35 araC::mdtEF): 320 µg/mL; Minimum Inhibitory Concentration, EKO-35 araC::emrKY (EKO-35 araC::emrKY; [8]): 320 µg/mL; Minimum Inhibitory Concentration, EKO-35 araC::acrEF (EKO-35 araC::acrEF): 320 µg/mL; Minimum Inhibitory Concentration, EKO-35 araC::acrBD408A (EKO-35 araC::acrBD408A; [8]): 320 µg/mL
3 | NC[C@H]1O[C@H](O[C@H]2[C@H](O)[C@@H](O[C@H]3O[C@H](CO)[C@@H](O)[C@H](N)[C@H]3O)[C@H](N)C[C@@H]2N)[C@H](O)[C@@H](O)[C@@H]1O [kanamycin] | 1 fold | – | 1 fold | – | 2 fold | – | 1 fold | 1 fold | 1 fold | 1 fold | 1 fold | 1 fold | 2 fold | 1.563 µg/mL | 1 fold | 1 fold | 1 fold | 1 fold | 1 fold | 1 fold | MIC (EKO-35 araC::mdtEF Pore; Escherichia coli, Table 14A, porinated, technical duplicate, read-out: Minimum inhibitory concentration, EKO-35 araC::mdtEF Pore): 1.56 µg/mL; MIC (EKO-35 araC::mdtBC Pore; Escherichia coli, EKO-35 araC::mdtBC Pore, technical duplicate, read-out: Minimum inhibitory concentration): 1.56 µg/mL; MIC (EKO-35 araC::acrEF Pore; Escherichia coli, Table 14A, porinated, technical duplicate, read-out: Minimum inhibitory concentration, EKO-35 araC::acrEF Pore): 1.56 µg/mL; MIC (EKO-35 araC::acrD Pore; Escherichia coli, Table 14A, porinated, technical duplicate, read-out: Minimum inhibitory concentration, EKO-35 araC::acrD Pore): 1.56 µg/mL; MIC (EKO-35 araC::emrKY Pore; Escherichia coli, EKO-35 araC::emrKY Pore, technical duplicate, read-out: Minimum inhibitory concentration): 1.56 µg/mL; MIC (EKO-35 araC::mexCD Pore; Escherichia coli, EKO-35 araC::mexCD Pore, technical duplicate, read-out: Minimum inhibitory concentration): 1.56 µg/mL; MIC ([1]; Escherichia coli, EKO-35 araC::acrBD408A Pore, technical duplicate, read-out: Minimum inhibitory concentration): 0.781 µg/mL; MIC (EKO-35 araC::emrAB Pore; Escherichia coli, EKO-35 araC::emrAB Pore, technical duplicate, read-out: Minimum inhibitory concentration): 1.56 µg/mL; MIC (wild-type (WT) K-12-Pore; Table 10, with pore, read-out: Minimum inhibitory concentration (MIC), Pore K-12): 3.12 µg/mL; MIC (wild-type (WT) K-12-Pore; Table 14A, porinated, read-out: Minimum inhibitory concentration, K-12 (WT)-Pore): 3.12 µg/mL; MIC (ΔtolC-Pore; Escherichia coli, 18 h, read-out: Minimum inhibitory concentration, ΔtolC-Pore): 1.56 µg/mL; MIC (EKO-35 araC::emrKY; Escherichia coli, Table 13B, non-porinated, technical duplicate, read-out: Minimum Inhibitory Concentration, EKO-35 araC::emrKY): 1.56 µg/mL; MIC (EKO-35 araC::acrBD408A; Escherichia coli, Table 13B, non-porinated, technical duplicate, read-out: Minimum Inhibitory Concentration, EKO-35 araC::acrBD408A): 1.56 µg/mL

— patent US20230407243A1, “GENETIC PLATFORM TO INVESTIGATE THE FUNCTIONS OF BACTERIAL DRUG EFFLUX PUMPS” (priority 2022, published 2023)
